The source of these data is US20070196848A1, “DETECTION OF PHOSPHORYLATED eIF2-alpha AS A DIAGNOSTIC TEST FOR EFFICACY AND SENSITIVITY OF TRANSLATION INITIATION INHIBITORS IN THE TREATMENT OF CANCER AND OTHER PROLIFERATIVE DISEASES” (priority 2004, published 2007).

Series [1] concerns 5′ UTR of BRCA1 mRNA. Put plainly: firefly luciferase reporter with 5′ UTR of BRCA1 mRNAa or mRNAb in MCF-7 cells. It counts as cell-based, human. The following applies: renilla luciferase internal control. The text has this:
(§1) FIGS. 4A-4C depict dose-dependent up-regulation of BRCA1 in MCF-7 breast cancer cells by EPA (A) and CLT (B). Upper bands, BRCA1; lower bands, actin.
(§2) MCF-7 breast cancer cells, known to have very low levels of BRCA1 protein, were exposed to CLT and EPA. […] To confirm that up-regulation of BRCA1 was at the level of translation, the 5′ UTRs of either BRCA1 mRNAa or mRNAb were placed in front of the firefly luciferase reporter gene using in both cases renilla luciferase as an internal control. These constructs were transfected into MCF-7 breast cancer cells. […] Without intending to be bound by theory, these experiments indicate that the inhibitors of translation initiation that induce phosphorylation of eIF2α restrict the availability of the ternary complex to translationally up-regulate the tumor suppressor gene BRCA1, a critical player in many types of sporadic breast and ovarian cancers.
In general terms: Reporter assays use an easily measured gene product as a stand-in for the process of interest.

Series [2] has as its system BRCA1. The experiment in a line: BRCA1 expression in MCF-7 breast cancer cells. Format: cell-based, human. The conditions noted are these: MCF-7 cells, dose-dependent.
Text: as §1, §2

Series [3] relates to PC-3 human prostate tumors. The experiment in a line: orthotopic xenograft model of human prostate cancer, survival. Format: in vivo, mouse. The conditions noted are these: PC-3 orthotopic, gavage 2.5 grams/kilogram/day. The text has this:
FIGS. 14A-14F depict the effect of EPA on xenograft cancer models. (A) EPA increased the mean survival time in an orthotopic model of PC-3 human prostate tumors (left, corn oil; right, EPA). (B) EPA reduced tumor growth in an orthotopic syngenic model of KLN mouse squamous cell carcinoma (5 weeks) (left, corn oil; right, EPA). (C) EPA induced phosphorylation of eIF2α in the KLN tumors (left, corn oil; middle, EPA1;
Human PC-3 prostate cancer cells stably transfected with the GFP fluorescent marker were implanted into mouse prostate glands and tumors were allowed to establish. Mice with tumors detectable by whole body fluorescent scanning were treated with EPA or corn oil, orally administered by gavage (2.5 grams/kilogram/day).

The test system of series [4] is eIF2α phosphorylation. The experiment in a line: immunoblot with anti-S51-P-eIF2α-specific antibody in DU-145 cells. The conditions noted are these: two hours. It counts as cell-based, human. On the technique in general: In western blotting, separated proteins are transferred to a membrane and probed.
Protocol: To investigate whether depletion of Ca^++ stores by EPA causes activation of eIF2α kinases and phosphorylation of eIF2α in prostate cancer cells, DU-145 cells were incubated with or without increasing concentrations of EPA for two hours.
For series [5], the system named is p53^−/− mice. The text has this:
p53 is the most commonly mutated gene in human cancers. The anti-cancer activity of EPA was investigated in p53^−/− mice, which develop a wide variety of spontaneous tumors with 100% penetrance and die from cancer within 50 weeks of age. Age and sex matched animals were randomly distributed to treatment (2.5 grams/kilogram EPA) or control (2.5 grams/kilogram corn oil) administered daily by gavage.

The test system of series [6] is DU-145 cells transfected with eIF2αWT. Put plainly: cell cycle distribution of GFP expressing cells by FACS. It counts as cell-based, human. The following applies: WT, GFP-expressing DU-145 cells. The procedure:
(§3) FIG. 10 depicts cell cycle inhibition by EPA that is dependent on eIF2α phosphorylation. DU-145 human prostate cancer cell lines were transiently transfected with eIF2α-51A-GFP or eIF2α-WT-GFP plasmids, treated with EPA or vehicle, stained with propidium iodide and cell cycle distribution of GFP transfected cells was determined.
(§4) eIF2α51A is a […] non-phosphorylatable mutant of eIF2α in which serine 51 has been replaced by alanine (FIG. 9). To confirm that eIF2α phosphorylation is also critical for EPA-mediated inhibition of cell proliferation in prostate cancer cells, DU-145 cells were transiently transfected with a construct that co-expresses the fluorescent marker GFP with either eIF2αWT (i.e., eIF2α wild-type) or eIF2α51A. These cells were treated with either EPA or vehicle DMSO, and the cell cycle distribution of GFP expressing cells was determined by FACS analysis.

Series [7] concerns DU-145 cells transfected with eIF2α51A. The description is as above. It counts as cell-based, human. The following applies: 51A, GFP-expressing DU-145 cells. The procedure: as §3, §4
Series [8] concerns HTB-174. Put plainly: sulfarodamine B cell growth assay (SRB). It counts as cell-based. The following applies: Homo sapiens; HTB-174, Lung. From the text: The effect of EPA on the proliferation of a panel of cancer cell lines representative of most common human cancers was studied using the sulfarodamine B cell growth assay (SRB).
Series [9] relates to MCF-7. The experiment in a line: sulfarodamine B cell growth assay (SRB). The conditions noted are these: Homo sapiens, MCF7; MCF-7, Breast. It counts as cell-based. From the text:
(§5) The effect of EPA on the proliferation of a panel of cancer cell lines representative of most common human cancers was studied using the sulfarodamine B cell growth assay (SRB). EPA inhibited the proliferation of all cancer cell lines tested, including androgen dependent and androgen independent prostate cancer cell lines (LNCaP, PC-3 and DU-145) in a dose dependent manner (Table 1: effect of EPA on human cancer cello growth).

The subject of series [10] is MMRU. The experiment in a line: sulfarodamine B cell growth assay (SRB). The following applies: Homo sapiens, Skin. It counts as cell-based.
Text: as §5

The test system of series [11] is Hep-G2. The experiment in a line: sulfarodamine B cell growth assay (SRB). It counts as cell-based. The following applies: Homo sapiens, HepG2; Hep-G2, Liver.
Text: as §5

For series [12], the system named is PC-3. The experiment in a line: sulfarodamine B cell growth assay (SRB). The conditions noted are these: Homo sapiens; PC-3, Prostate. Format: cell-based.
Text: as §5

The subject of series [13] is LNCaP. Put plainly: sulfarodamine B cell growth assay (SRB). It counts as cell-based. The following applies: Homo sapiens, Prostate.
Text: as §5

Series [14] relates to SK-OV3. The experiment in a line: sulfarodamine B cell growth assay (SRB). It counts as cell-based. The following applies: Homo sapiens, SK-OV-3; SK-OV3, Ovary.
Text: as §5

In series [15] the test system is DU-145. The experiment in a line: sulfarodamine B cell growth assay (SRB). It counts as cell-based. The conditions noted are these: Homo sapiens; DU-145, Prostate.
Text: as §5

In series [16] the test system is HT-29. The experiment in a line: sulfarodamine B cell growth assay (SRB). It counts as cell-based. The following applies: Homo sapiens; HT-29, Colon.
Text: as §5

Series [17] relates to U-118 MG. Put plainly: sulfarodamine B cell growth assay (SRB). It counts as cell-based. The following applies: Homo sapiens, Glioblastoma.
Text: as §5

The test system of series [18] is SK-Mel-28. Put plainly: sulfarodamine B cell growth assay (SRB). Format: cell-based. The conditions noted are these: Homo sapiens; SK-Mel-28, Skin.
Text: as §5

Series [19] has as its system Caski-1. Put plainly: sulfarodamine B cell growth assay (SRB). Format: cell-based. The conditions noted are these: Homo sapiens; Caski-1, Cervix.
Text: as §5

The subject of series [20] is ACHN. The experiment in a line: sulfarodamine B cell growth assay (SRB). It counts as cell-based. The following applies: Homo sapiens, Kidney.
Text: as §5

Series [21] deals with HeLa. The experiment in a line: sulfarodamine B cell growth assay (SRB). It counts as cell-based. The conditions noted are these: Homo sapiens, Cervix.
Text: as §5

For series [22], the system named is MDAMB231. The experiment in a line: sulfarodamine B cell growth assay (SRB). Format: cell-based. The conditions noted are these: Homo sapiens, MDA-MB-231; MDAMB231, Breast.
Text: as §5

The subject of series [23] is HCT-15. The experiment in a line: sulfarodamine B cell growth assay (SRB). Format: cell-based. The conditions noted are these: Homo sapiens; HCT-15, Colon.
Text: as §5

In series [24] the test system is A549. The experiment in a line: sulfarodamine B cell growth assay (SRB). It counts as cell-based. The conditions noted are these: Homo sapiens; A549, Lung.
Text: as §5

For `Clc1ccccc1C(c1ccccc1)(c1ccccc1)n1ccnc1` [CLT, clotrimazole], the “translation of reporter fused to 5′ UTR of BRCA1 mRNAb” value in series [1] is “significantly up-regulated translation”. Besides, the “up-regulation of BRCA1” value in series [2] is reported as “significant up-regulation of BRCA1”.

`CC/C=C\C/C=C\C/C=C\C/C=C\C/C=C\CCCC(=O)O` [EPA, eicosapentaenoic acid]: the “longer mean survival time than corn oil” value in [3] stood at 50%. Further, in series [3], the mean survival time was found to be 38 ± 5 days. The “increase in eIF2α phosphorylation” value in series [4] is “approximately 10 fold”. The sign of toxicity result in [5] (mouse, in vivo) is on record as “Neither control nor EPA treated animals showed any sign of toxicity”. Further, the “mean survival time (Kaplan-Meier)” value in [5] (oral 2.5 grams/kilogram/day from four weeks of age) came to 385 ± 12 days. The “% G1” value in series [6] worked out at 67%; in series [7], 48%. For the same compound, the entries for the “% G2/M” value in series [6] and in [7] were 14% and 21%, respectively. In addition, the figures for the “% S” value in series [6] and in series [7] were 19% and 31%, respectively. Besides, the IC50 (in general, the concentration needed to halve the response being measured) in series [8] is 79 µM; in series [9], 43 µM; in [10], 36 µM; in series [11], 24 µM; in series [12], 20 µM; in series [13], 18 µM. The IC50 in series [14] stood at 96 µM; in series [15], 36 µM; in series [16], 72 µM; in series [17], 36 µM; in series [18] it was 46 µM; in [19], 76 µM. In addition, the IC50 is 62 µM in series [20]; 10 µM in [21]; 37 µM in [22]; 47 µM in [23]; 54 µM in series [24].
